Test results from patent US6506772B1, “Substituted [1,2,4]triazolo[1,5a]pyridine derivatives with activity as adenosine receptor ligands” (Hoffmann-La Roche Inc., priority 2000, dated 2003).

Legend:
[1] = target: T1, HA1 adenosine receptor (Homo sapiens, UniProt P30542); assay: Human adenosine A1 receptor affinity (Ki hA1); type: binding; conditions: affinity to human adenosine A1 receptor
T1 sequence (P30542 1-326): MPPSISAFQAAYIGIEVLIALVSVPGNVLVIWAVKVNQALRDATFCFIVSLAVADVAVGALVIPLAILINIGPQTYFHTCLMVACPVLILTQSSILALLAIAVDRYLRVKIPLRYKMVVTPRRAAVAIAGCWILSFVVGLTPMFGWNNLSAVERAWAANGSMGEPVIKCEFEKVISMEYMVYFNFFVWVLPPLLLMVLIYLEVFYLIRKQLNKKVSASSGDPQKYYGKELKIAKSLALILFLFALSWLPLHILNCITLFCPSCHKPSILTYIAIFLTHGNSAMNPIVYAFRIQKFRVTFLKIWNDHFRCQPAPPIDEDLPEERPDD

[2] = target: T2, human adenosine A2A receptor (Homo sapiens, UniProt P29274); assay: Human adenosine A2A receptor [3H]-SCH-58261 binding assay; conditions: for Ki: affinity to human adenosine A2A receptor, read-out: Ki HA2A; for selectivity (A1/A2a): calculated ratio of the affinity to the HA1 receptor to the HA2a receptor
T2 construct: expressed in transfected cells; host or cells: CHO cells, Semliki Forest virus expression system; membrane preparation
T2 sequence (P29274 whole entry): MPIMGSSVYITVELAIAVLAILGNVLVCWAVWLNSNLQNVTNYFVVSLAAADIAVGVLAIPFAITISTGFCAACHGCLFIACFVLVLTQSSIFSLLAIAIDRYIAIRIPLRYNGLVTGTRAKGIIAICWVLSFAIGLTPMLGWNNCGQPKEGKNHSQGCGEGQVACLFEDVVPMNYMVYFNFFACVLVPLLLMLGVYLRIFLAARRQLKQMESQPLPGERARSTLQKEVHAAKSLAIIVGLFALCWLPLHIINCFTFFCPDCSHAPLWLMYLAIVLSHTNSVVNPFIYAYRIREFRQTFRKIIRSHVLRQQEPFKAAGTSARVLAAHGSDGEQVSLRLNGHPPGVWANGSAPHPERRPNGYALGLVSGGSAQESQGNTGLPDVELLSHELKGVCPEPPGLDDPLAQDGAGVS

| SMILES | Ki [1] [nM] | Ki [2] [nM] | selectivity (A1/A2a) [2] |
| --- | --- | --- | --- |
| CCNC(=O)c1cc(N)n2nc(-c3nccs3)nc2c1 [Example 328, 5-Amino-2-thiazol-2-yl-[1,2,4]triazolo[1,5-a]pyridine-7-carboxylic acid ethylamide] | 1240 | 31.7 | 39.1 |
| CC1CCCCN1C(=O)c1cc(N)n2nc(-c3nccs3)nc2c1 (stereo not drawn) [Example 329, (5-Amino-2-thiazol-2-yl-[1,2,4]triazolo[1,5-a]pyridin-7-yl)-(2-methyl-piperidin-1-yl)-methanone] | 1980 | 47.3 | 41.9 |
| CC1CCN(C(=O)c2cc(N)n3nc(-c4nccs4)nc3c2)CC1 [Example 330, (5-Amino-2-thiazol-2-yl-[1,2,4]triazolo[1,5-a]pyridin-7-yl)-(4-methyl-piperidin-1-yl)-methanone] | 2780 | 64.4 | 43.1 |
| CCCN(CCC)C(=O)c1cc(N)n2nc(-c3nccs3)nc2c1 [Example 331, 5-Amino-2-thiazol-2-yl-[1,2,4]triazolo[1,5-a]pyridine-7-carboxylic acid dipropylamide] | 2700 | 87.5 | 30.9 |
| Nc1cc(C(=O)N2CCCCCCC2)cc2nc(-c3nccs3)nn12 [Example 332, (5-Amino-2-thiazol-2-yl-[1,2,4]triazolo[1,5-a]pyridin-7-yl)-azocan-1-yl-methanone] | 844 | 17.2 | 49.1 |
| CC1CC(C)CN(C(=O)c2cc(N)n3nc(-c4nccs4)nc3c2)C1 (stereo not drawn) [Example 333, (5-Amino-2-thiazol-2-yl-[1,2,4]triazolo[1,5-a]pyridin-7-yl)-(3,5-dimethyl-piperidin-1-yl)-methanone] | 1730 | 36.1 | 47.9 |
| CCCCN(CCC)C(=O)c1cc(N)n2nc(-c3nccs3)nc2c1 [Example 334, 5-Amino-2-thiazol-2-yl-[1,2,4]triazolo[1,5-a]pyridine-7-carboxylic acid butyl-propyl-amide] | 1790 | 98 | 18.3 |
| CCNC(=O)c1cc(N)n2nc(-c3ccc(Br)o3)nc2c1 [Example 335, 5-Amino-2-(5-bromo-furan-2-yl)-[1,2,4]triazolo[1,5-a]pyridine-7-carboxylic acid ethylamide] | 355 | 25.2 | 14.1 |
| CC1CCN(C(=O)c2cc(N)n3nc(-c4ccc(Br)o4)nc3c2)CC1 [Example 337, [5-Amino-2-(5-bromo-furan-2-yl)-[1,2,4]triazolo[1,5-a]pyridin-7-yl]-(4-methyl-piperidin-1-yl)-methanone] | 183 | 6.4 | 28.6 |
| CCCN(CCC)C(=O)c1cc(N)n2nc(-c3ccc(Br)o3)nc2c1 [Example 338, 5-Amino-2-(5-bromo-furan-2-yl)-[1,2,4]triazolo[1,5-a]pyridine-7-carboxylic acid dipropylamide] | 200 | 3.1 | 64.4 |
| CCCCN(CCC)C(=O)c1cc(N)n2nc(-c3ccc(Br)o3)nc2c1 [Example 342, 5-Amino-2-(5-bromo-furan-2-yl)-[1,2,4]triazolo[1,5-a]pyridine-7-carboxylic acid butyl-propyl-amide] | 142 | 3 | 47.3 |
| Nc1cc(C(=O)N2CCc3ccccc3C2)cc2nc(-c3ccc(Br)o3)nn12 [Example 347, [5-Amino-2-(5-bromo-furan-2-yl)-[1,2,4]triazolo[1,5-a]pyridin-7-yl]-(3,4-dihydro-1H-isoquinolin-2-yl)-methanone] | 236 | 13.3 | 17.7 |
| Nc1cc(C(=O)N2CCC3CCCCC3C2)cc2nc(-c3ccc(Br)o3)nn12 (stereo not drawn) [Example 350] | 167 | 5.8 | 28.8 |
| Nc1cc(C(=O)N2CCN(c3ccccc3)CC2)cc2nc(-c3ccc(Br)o3)nn12 [Example 353, [5-Amino-2-(5-bromo-furan-2-yl)-[1,2,4]triazolo[1,5-a]pyridin-7-yl]-(4-phenyl-piperazin-1-yl)-methanone] | 1040 | 81.5 | 12.7 |
| Nc1cc(C(=O)N2CCc3c([nH]c4ccccc34)C2)cc2nc(-c3ccc(Br)o3)nn12 [Example 355, [5-Amino-2-(5-bromo-furan-2-yl)-[1,2,4]triazolo[1,5-a]pyridin-7-yl]-(1,3,4,9-tetrahydro-b-carbolin-2-yl)-methanone] | 286 | 47 | 6.1 |
| C[C@@H]1CCC[C@H](C)N1C(=O)c1cc(N)n2nc(-c3nccs3)nc2c1 [Example 358, (5-Amino-2-thiazol-2-yl-[1,2,4]triazolo[1,5-a]pyridin-7-yl)-(cis-2,6-dimethyl-piperidin-1-yl)-methanone] | 1720 | 74.7 | 23.0 |
| C[C@@H]1CC[C@@H](C)N1C(=O)c1cc(N)n2nc(-c3ccc(Br)o3)nc2c1 [Example 359, [5-Amino-2-(5-bromo-furan-2-yl)-[1,2,4]triazolo[1,5-a]pyridin-7-yl]-[(2R,5R)-trans-2,5-dimethyl-pyrrolidin-1-yl]-methanone] | 934 | 7.3 | 128.0 |

Compounds with a lower Ki [1], results first:

| Ki [1] [nM] | Ki [2] [nM] | selectivity (A1/A2a) [2] | SMILES |
| --- | --- | --- | --- |
| 128 | 5.8 | 22.2 | Nc1cc(C(=O)N(Cc2ccccc2)Cc2ccccc2)cc2nc(-c3nccs3)nn12 [Example 327, 5-Amino-2-thiazol-2-yl-[1,2,4]triazolo[1,5-a]pyridine-7-carboxylic acid dibenzylamide] |
| 37 | 1.3 | 28.5 | Nc1cc(C(=O)N2CCCCCCC2)cc2nc(-c3ccc(Br)o3)nn12 [Example 339, [5-Amino-2-(5-bromo-furan-2-yl)-[1,2,4]triazolo[1,5-a]pyridin-7-yl]-azocan-1-yl-methanone] |
| 77.3 | 2.6 | 29.7 | CN(C(=O)c1cc(N)n2nc(-c3ccc(Br)o3)nc2c1)C1CCCCC1 [Example 340, 5-Amino-2-(5-bromo-furan-2-yl)-[1,2,4]triazolo[1,5-a]pyridine-7-carboxylic acid cyclohexyl-methyl-amide] |
| 120 | 1.7 | 70.3 | CC1CC(C)CN(C(=O)c2cc(N)n3nc(-c4ccc(Br)o4)nc3c2)C1 (stereo not drawn) [Example 341, [5-Amino-2-(5-bromo-furan-2-yl)-[1,2,4]triazolo[1,5-a]pyridin-7-yl]-(3,5-dimethyl-piperidin-1-yl)-methanone] |
| 42.2 | 2.7 | 15.6 | CN(Cc1ccccc1)C(=O)c1cc(N)n2nc(-c3ccc(Br)o3)nc2c1 [Example 343, 5-Amino-2-(5-bromo-furan-2-yl)-[1,2,4]triazolo[1,5-a]pyridine-7-carboxylic acid benzyl-methyl-amide] |
| 71.7 | 1.6 | 44.8 | C=CCN(C(=O)c1cc(N)n2nc(-c3ccc(Br)o3)nc2c1)C1CCCC1 [Example 344, 5-Amino-2-(5-bromo-furan-2-yl)-[1,2,4]triazolo[1,5-a]pyridine-7-carboxylic acid allyl-cyclopentyl-amide] |
| 62.1 | 2 | 31.1 | CCN(C(=O)c1cc(N)n2nc(-c3ccc(Br)o3)nc2c1)C1CCCCC1 [Example 345, 5-Amino-2-(5-bromo-furan-2-yl)-[1,2,4]triazolo[1,5-a]pyridine-7-carboxylic acid cyclohexyl-ethyl-amide] |
| 102 | 2.4 | 42.7 | CC(C)CN(CC(C)C)C(=O)c1cc(N)n2nc(-c3ccc(Br)o3)nc2c1 [Example 346, 5-Amino-2-(5-bromo-furan-2-yl)-[1,2,4]triazolo[1,5-a]pyridine-7-carboxylic acid diisobutylamide] |
| 67 | 2.6 | 25.8 | C=CCN(C(=O)c1cc(N)n2nc(-c3ccc(Br)o3)nc2c1)C1CCCCC1 [Example 348, 5-Amino-2-(5-bromo-furan-2-yl)-[1,2,4]triazolo[1,5-a]pyridine-7-carboxylic acid allyl-cyclohexyl-amide] |
| 64.7 | 2.9 | 22.3 | Nc1cc(C(=O)N2CCCC3CCCCC32)cc2nc(-c3ccc(Br)o3)nn12 (stereo not drawn) [Example 349, [5-Amino-2-(5-bromo-furan-2-yl)-[1,2,4]triazolo[1,5-a]pyridin-7-yl]-(octoahydro-quinolin-1-yl)-methanone] |
| 77.3 | 2.9 | 26.7 | CC(C)N(C(=O)c1cc(N)n2nc(-c3ccc(Br)o3)nc2c1)C1CCCCC1 [Example 351, 5-Amino-2-(5-bromo-furan-2-yl)-[1,2,4]triazolo[1,5-a]pyridine-7-carboxylic acid cyclohexyl-isopropyl-amide] |
| 45.5 | 2.9 | 15.7 | Nc1cc(C(=O)N2CCCCC2c2cccnc2)cc2nc(-c3ccc(Br)o3)nn12 (stereo not drawn) [Example 354, [5-Amino-2-(5-bromo-furan-2-yl)-[1,2,4]triazolo[1,5-a]pyridin-7-yl]-(3,4,5,6-tetrahydro-2H-[2,3′]bipyridinyl-1-yl)-methanone] |
